Columns and labels:
[1] = tested on: Acinetobacter baumannii strain 30; test: Checkerboard assay (FICI) with antibiotics, A. baumannii; assay type: cell-based; conditions: checkerboard
Protocol: (§1) Checkerboard assays. […] Checkerboards were constructed by first preparing columns of a 96-well polypropylene microtiter plate, in which each well had the same amount of antibiotic diluted 2-fold along the horizontal axis. […] Summation fractional inhibitory concentration index (FICIs) were calculated for each drug and the minimum FICI was used to determine synergy. FICIs were calculated as follows: FICI=FIC A+FIC B, where FIC A is the MIC of each antibiotic in the combination/MIC of the each antibiotic alone, and FIC B is the MIC of each Chp peptide in the combination/MIC of each Chp peptide alone. The combination is considered synergistic when the FICI is ≤0.5, strongly additive when the FICI is >0.5 to <1, additive with the FICI is 1-<2, and antagonistic when the FICI is ≥2.
The results are shown below in Tables 22-27.

[2] = tested on: P. aeruginosa strain CFS-1292; test: Checkerboard assay (FICI) with antibiotics, P. aeruginosa; assay type: cell-based, Pseudomonas aeruginosa; conditions: for Antibiotic FIC: P. aeruginosa CFS-1292; for Antibiotic MIC in checkerboard: P. aeruginosa CFS-1292, CAA + […] human serum
Protocol: Any known method to assess MIC may be used.
Checkerboards are constructed by first preparing columns of e.g., a 96-well polypropylene microtiter plate, wherein each well has the same amount of antibiotic diluted 2-fold along the horizontal axis. […] Bacteria are added to the drug combinations at concentrations of 1×10^5 […] in CAA, for example, with or without human serum or pulmonary surfactant. […] Summation fractional inhibitory concentrations (ΣFICs) are calculated for each drug and the minimum ΣFIC value (ΣFICmin) is used to determine the effect of the Chp peptide/antibiotic combination.
as §1
In the checkerboard assay, fractional inhibitory concentration index (FICI) values are calculated.

[3] = tested on: Klebsiella pneumoniae strain 1139; test: Checkerboard assay (FICI) with antibiotics, K. pneumoniae; assay type: cell-based
Protocol: as §1

[4] = checkerboard, in combination with Chp4-M1
[5] = checkerboard, in combination with Chp6-M1
[6] = checkerboard, in combination with Chp10-M1
[7] = checkerboard, in combination with Unp2-M1

Compound: NCC[C@H](O)C(=O)N[C@@H]1C[C@H](N)[C@@H](O[C@H]2O[C@H](CN)[C@@H](O)[C@H](O)[C@H]2O)[C@H](O)[C@H]1O[C@H]1O[C@H](CO)[C@@H](O)[C@H](N)[C@H]1O [Amikacin]
- Antibiotic FIC ([1]; in combination with Chp2): 0.25
- Antibiotic FIC ([1]; in combination with Chp2-M1): 0.5
- Antibiotic FIC ([1]; in combination with Chp4-M1): 0.5
- Antibiotic FIC ([1]; in combination with Chp6-M1): 0.5
- Antibiotic FIC ([1]; in combination with Chp10-M1): 0.5
- Antibiotic FIC ([1]; in combination with Unp2-M1): 0.5
- Antibiotic FIC ([2]; combined with Chp2-M1): 0.25
- Antibiotic MIC in checkerboard ([2]; combined with Chp2-M1): 0.5 µg/mL
- Antibiotic FIC ([2]; combined with Chp2): 0.25
- Antibiotic MIC in checkerboard ([2]; combined with Chp2): 0.5 µg/mL
- Antibiotic FIC ([2]; combined with Chp4-M1): 0.0625
- Antibiotic FIC ([2]; combined with Chp6-M1): 0.25
- Antibiotic MIC in checkerboard ([2]; combined with Chp6-M1): 0.5 µg/mL
- Antibiotic FIC ([2]; combined with Chp10-M1): 0.125
- Antibiotic MIC in checkerboard ([2]; combined with Chp10-M1): 0.25 µg/mL
- Antibiotic FIC ([2]; combined with Unp2-M1): 0.25
- Antibiotic MIC in checkerboard ([2]; combined with Unp2-M1): 0.5 µg/mL

Compound: CC[C@H]1OC(=O)[C@H](C)[C@@H](O[C@H]2C[C@@](C)(OC)[C@@H](O)[C@H](C)O2)[C@H](C)[C@@H](O[C@@H]2O[C@H](C)C[C@H](N(C)C)[C@H]2O)[C@](C)(O)C[C@@H](C)CN(C)[C@H](C)[C@@H](O)[C@]1(C)O [Azithromycin]
- Antibiotic FIC ([1]; in combination with Chp2): 0.5
- Antibiotic MIC ([1]; in combination with Chp2): 0.5 µg/mL
- Antibiotic FIC ([1]; in combination with Chp2-M1): 0.25
- Antibiotic MIC ([1]; in combination with Chp2-M1): 0.5 µg/mL
- Antibiotic FIC ([1]; in combination with Chp4-M1): 0.25
- Antibiotic MIC ([1]; in combination with Chp4-M1): 0.5 µg/mL
- Antibiotic FIC ([1]; in combination with Chp6-M1): 0.25
- Antibiotic MIC ([1]; in combination with Chp6-M1): 0.5 µg/mL
- Antibiotic FIC ([1]; in combination with Chp10-M1): 0.5
- Antibiotic MIC ([1]; in combination with Chp10-M1): 0.5 µg/mL
- Antibiotic FIC ([1]; in combination with Unp2-M1): 0.5
- Antibiotic MIC ([1]; in combination with Unp2-M1): 0.5 µg/mL
- Antibiotic FIC [3, 4]: 0.25
- Antibiotic MIC [3, 4]: 1 µg/mL
- Antibiotic FIC [3, 5]: 0.5
- Antibiotic MIC [3, 5]: 1 µg/mL
- Antibiotic MIC [3, 6]: 1 µg/mL
- Antibiotic MIC [3, 7]: 1 µg/mL
- Antibiotic MIC in checkerboard ([3]; combined with Chp2): 1 µg/mL
- Antibiotic FIC ([3]; combined with Chp2-M1): 0.25
- Antibiotic MIC in checkerboard ([3]; combined with Chp2-M1): 1 µg/mL
- Antibiotic FIC ([2]; combined with Chp2): 0.25
- Antibiotic FIC ([2]; combined with Chp4-M1): 0.25
- Antibiotic FIC ([2]; combined with Chp6-M1): 0.25

Compound: C[C@H]1[C@H](NC(=O)/C(=N\OC(C)(C)C(=O)O)c2csc(N)n2)C(=O)N1S(=O)(=O)O [Aztreonam]
- Antibiotic FIC ([1]; in combination with Chp2): 0.25
- Antibiotic MIC ([1]; in combination with Chp2): 8 µg/mL
- Antibiotic FIC ([1]; in combination with Chp2-M1): 0.25
- Antibiotic MIC ([1]; in combination with Chp2-M1): 8 µg/mL
- Antibiotic FIC ([1]; in combination with Chp4-M1): 0.25
- Antibiotic MIC ([1]; in combination with Chp4-M1): 16 µg/mL
- Antibiotic FIC ([1]; in combination with Chp6-M1): 0.25
- Antibiotic MIC ([1]; in combination with Chp6-M1): 8 µg/mL
- Antibiotic FIC ([1]; in combination with Chp10-M1): 0.25
- Antibiotic MIC ([1]; in combination with Chp10-M1): 8 µg/mL
- Antibiotic FIC ([1]; in combination with Unp2-M1): 0.25
- Antibiotic MIC ([1]; in combination with Unp2-M1): 16 µg/mL
- Antibiotic FIC [3, 4]: 0.5
- Antibiotic MIC [3, 4]: 0.007812 µg/mL
- Antibiotic FIC [3, 5]: 0.25
- Antibiotic MIC [3, 5]: 0.007812 µg/mL
- Antibiotic FIC [3, 6]: 0.25
- Antibiotic MIC [3, 6]: 0.007812 µg/mL
- Antibiotic FIC [3, 7]: 0.007812
- Antibiotic MIC [3, 7]: 0.007812 µg/mL
- Antibiotic FIC ([3]; combined with Chp2): 0.5
- Antibiotic MIC in checkerboard ([3]; combined with Chp2): 0.007812 µg/mL
- Antibiotic FIC ([3]; combined with Chp2-M1): 0.5
- Antibiotic MIC in checkerboard ([3]; combined with Chp2-M1): 0.007812 µg/mL
- Antibiotic FIC ([2]; combined with Chp2-M1): 0.5
- Antibiotic FIC ([2]; combined with Chp2): 0.25
- Antibiotic FIC ([2]; combined with Chp4-M1): 0.25
- Antibiotic FIC ([2]; combined with Chp6-M1): 0.25
- Antibiotic FIC ([2]; combined with Chp10-M1): 0.25

Compound: C[C@H]1COc2c(N3CCN(C)CC3)c(F)cc3c(=O)c(C(=O)O)cn1c23 [Levofloxacin]
- Antibiotic FIC ([1]; in combination with Chp2): 0.25
- Antibiotic FIC ([1]; in combination with Chp2-M1): 0.25
- Antibiotic FIC ([1]; in combination with Chp4-M1): 0.25
- Antibiotic FIC ([1]; in combination with Chp6-M1): 0.25
- Antibiotic FIC ([1]; in combination with Chp10-M1): 0.25
- Antibiotic FIC ([1]; in combination with Unp2-M1): 0.25
- Antibiotic FIC [3, 4]: 0.25
- Antibiotic MIC [3, 4]: 0.007812 µg/mL
- Antibiotic FIC [3, 5]: 0.25
- Antibiotic MIC [3, 5]: 0.007812 µg/mL
- Antibiotic FIC [3, 6]: 0.125
- Antibiotic MIC [3, 6]: 0.007812 µg/mL
- Antibiotic FIC [3, 7]: 0.01562
- Antibiotic MIC [3, 7]: 0.01562 µg/mL
- Antibiotic FIC ([3]; combined with Chp2): 0.25
- Antibiotic MIC in checkerboard ([3]; combined with Chp2): 0.007812 µg/mL
- Antibiotic FIC ([3]; combined with Chp2-M1): 0.25
- Antibiotic MIC in checkerboard ([3]; combined with Chp2-M1): 0.007812 µg/mL
- Antibiotic FIC ([2]; combined with Chp2-M1): 0.25
- Antibiotic FIC ([2]; combined with Chp2): 0.25
- Antibiotic FIC ([2]; combined with Chp4-M1): 0.5
- Antibiotic FIC ([2]; combined with Chp6-M1): 0.25
- Antibiotic FIC ([2]; combined with Chp10-M1): 0.25
- Antibiotic FIC ([2]; combined with Unp2-M1): 0.25
